# Details: buffer; pH 7.4; 200.0 µM
row,SMILES,solubility kinetic
1,CCc1ccc(N2CC(C(=O)Nc3cc(C)on3)CC2=O)cc1 (stereo not given),26 µg/mL
2,CN(Cc1ccccc1F)C(=O)c1ccc(Oc2ccccc2)cc1,4.2 µg/mL
3,Cc1cnc(C(=O)NC2CCSc3ccccc32)cn1 (stereo not given),26.2 µg/mL
4,Cc1noc(C)c1S(=O)(=O)Nc1ccc(C#N)cc1,> 41.6 µg/mL
5,O=C(NCCCN1CCOCC1)C(c1ccccc1)c1ccccc1,> 50.8 µg/mL
6,O=C(Nc1ccccc1Cl)C1CC(=O)N(c2ccccc2)C1 (stereo not given),33.4 µg/mL
7,COc1ccc(-n2c(=S)[nH]c3ncccc3c2=O)cc1,1.5 µg/mL
8,N#C/C(=C\c1c(F)cccc1Cl)C(=O)NC1CC1,> 39.7 µg/mL
9,O=CN1CCN(C(=O)c2cc3cc(Cl)ccc3[nH]2)CC1,34.9 µg/mL
10,Cc1cc(=O)[nH]c2ccc(S(=O)(=O)NCc3ccccc3)cc12,2.5 µg/mL
11,CCc1c(C)nc(N2CCN(c3ccccc3)CC2)[nH]c1=O,8.8 µg/mL
12,Cc1ccc(NC(=O)COCC(=O)Nc2ccc(F)cc2)cc1,37.3 µg/mL
13,O=C(Nc1cccc(Cl)c1Cl)C1CCCC1,3.9 µg/mL
14,Cc1ccc2oc(C(=O)NC3CCS(=O)(=O)C3)c(C)c2c1 (stereo not given),27.5 µg/mL
15,Cc1ccc(Nc2nc(-c3ccccc3)cs2)nc1,< 0.2 µg/mL
16,Cc1ccsc1C(=O)N1CCc2ccccc2C1,> 38.6 µg/mL
17,COc1cccc(NC(=O)c2cnc(SC)nc2C)c1,> 43.4 µg/mL
18,CCN(C(=O)CCc1ccccc1)C1CCCCC1,26.8 µg/mL
19,O=C(CSc1cccc[n+]1[O-])c1ccc(Cl)cc1,39.9 µg/mL
20,C#CCOc1ccc(/C=C2/C(=O)ON=C2C)cc1Cl,32.9 µg/mL
21,COC(=O)c1cc(C)sc1NC(=O)CSc1ncccn1,44 µg/mL
22,CCc1ccc2nc(N(CCN(C)C)C(=O)/C=C/c3cccs3)sc2c1.Cl,< 0.3 µg/mL
23,CCCCc1ccc(NC2=NCCCS2)cc1,26.4 µg/mL
24,COc1ccccc1C1CCN(Cc2c(C)[nH]c3ccccc23)CC1,> 50.2 µg/mL

row,SMILES,solubility kinetic
1,CCCc1ccc2oc(C(=O)N3CCC(COC)C3)c(C)c2c1 (stereo not given),24.7 µg/mL
2,Cc1ccc(S(=O)(=O)NC2=NCN(C(C)C)CN2)cc1,> 44.5 µg/mL
3,COc1ccc(C(=O)OCC(=O)c2c(N)n(C)c(=O)n(C)c2=O)c(OC)c1OC,> 61.1 µg/mL
4,Cc1cc(OC(=O)c2ccccc2C)c([N+](=O)[O-])c(=O)[nH]1,> 43.2 µg/mL
5,COCCNc1nc(-c2ccccc2)nc2ccccc12.Cl,> 47.4 µg/mL
6,Cc1nc(CSc2nnc(N)s2)cs1,> 36.7 µg/mL
7,O=c1[nH]cccc1-c1nc2ccccc2n1Cc1ccc(F)cc1,47.7 µg/mL
8,CCOC(=O)c1sc(NC(=O)C2CCCCC2)nc1C,5 µg/mL
9,Cc1ccc(NC(=O)CN(C)CC(=O)Nc2ccccc2C#N)cc1,> 50.5 µg/mL
10,Cc1ccc(NC(=S)N(Cc2ccccc2)C(C)C)cc1,7.6 µg/mL
11,CC(=O)c1cccc(CN2CCN(C3CCCC3)C(CCO)C2)c1 (stereo not given),> 49.6 µg/mL
12,CC1CN(S(=O)(=O)c2cc(C(=O)NCCCN3CCCC3=O)ccc2Cl)CC(C)O1 (stereo not given),> 68.7 µg/mL
13,COC(=O)c1cc(C(=O)c2cc(Cl)ccc2O)coc1=N,41.9 µg/mL
14,Cc1ccc(OCC(=O)OCC(=O)NC2CCCC2)cc1C,20 µg/mL
15,Oc1cncc(Cc2ccccc2)c1,> 27.8 µg/mL
16,Cc1ccc(NC(=O)COC(=O)Cc2ccccc2)cc1S(=O)(=O)N1CCOCC1,58.1 µg/mL
17,COc1ccccc1Nc1nc(Cl)nc(Nc2ccccc2OC)n1,< 0.2 µg/mL
18,CCCCOc1ccc(-c2c(C#N)c(N)[nH]c(=S)c2C#N)cc1,35.6 µg/mL
19,COCC(C)NCc1cccc2ccccc12.O=C(O)C(=O)O (stereo not given),> 47.9 µg/mL
20,CCOc1ncccc1C(=O)Nc1ccc(F)cc1,13.7 µg/mL
21,Cc1ccc(OCCNC(=O)c2ccccc2O)cc1,4.5 µg/mL
22,CCCCNS(=O)(=O)c1ccc(NC(=O)c2cccs2)cc1,1 µg/mL
23,COc1ccc(N/C=C\C(=O)c2ccc3ccccc3c2)cc1,< 0.6 µg/mL
24,Cc1cccnc1NC(=S)NCc1ccco1,31.4 µg/mL

row,SMILES,solubility kinetic
1,O=C1OCC(c2ccccc2)=C1c1ccccc1[N+](=O)[O-],> 42.2 µg/mL
2,CCOc1ncccc1C(=O)OCC(=O)c1ccccc1,39.9 µg/mL
3,CC(C)C(=O)NCc1cc(-c2ccc(Cl)cc2)no1,3 µg/mL
4,O=C1C2CCCCN2C(=O)N1CCCN1CCN(c2ccc(F)cc2)CC1 (stereo not given),48.1 µg/mL
5,COc1ccccc1NC(=O)N1CCCC1C(=O)NCc1cccs1 (stereo not given),> 53.9 µg/mL
6,O=C(Nc1ccc(N2CCCC2)cc1)c1ccc(Br)cc1,1.4 µg/mL
7,Cc1cc(C(=O)COC(=O)/C=C/c2ccc(F)cc2)c(C)n1C,6.2 µg/mL
8,CCOC(=O)c1cc(S(=O)(=O)N2CCCC2)cn1C,22.4 µg/mL
9,CN(Cc1ccccc1)c1nc(N)nc(Cl)c1C=O,26.4 µg/mL
10,CCOc1ccccc1Nc1ccc(C(=O)O)cc1[N+](=O)[O-],40.8 µg/mL
11,O=C(NCC(=O)N1CCN(Cc2ccccc2)CC1)c1cc(Cl)cc([N+](=O)[O-])c1,> 62.5 µg/mL
12,Cc1ccc(C(=O)N2CCC(C(=O)NC3CCCC3)CC2)cc1,44 µg/mL
13,COc1ccc(NC(=O)CCc2nc3ccccc3[nH]2)cc1,5.3 µg/mL
14,O=C(NCC(F)(F)F)c1ccc(S(=O)(=O)Nc2ccccc2N2CCCC2)cc1,15.4 µg/mL
15,Cc1ccc(-c2onc3ccc(Br)cc23)cc1,< 0.6 µg/mL
16,O=C(NCC1CCCO1)c1ccc(N2C(=O)C3CCCCC3C2=O)cc1 (stereo not given),44.9 µg/mL
17,CC(=O)N1CCc2ccc(S(=O)(=O)Nc3ccccc3Cl)cc21,39.2 µg/mL
18,Cc1c(Cl)ccc(S(=O)(=O)Nc2cccnc2)c1Cl,5.1 µg/mL
19,Cc1c(C)c(C)c(S(=O)(=O)NCCc2ccncc2)c(C)c1C,2 µg/mL
20,Cc1ccc(C(=O)NCC(=O)NCC(c2cccs2)N(C)C)cc1C (stereo not given),> 53.9 µg/mL
21,O=C(CC1Sc2ccccc2NC1=O)NCc1ccc(Cl)cc1 (stereo not given),< 0.4 µg/mL
22,COc1cc(C)c(COc2ncnc3ccccc23)cc1OC,40.1 µg/mL
23,CC1NC(=O)NC1CCCCCC(=O)Nc1ccc(F)c(Cl)c1 (stereo not given),> 51.3 µg/mL
24,S=C(Nc1ccc(Cl)cc1Cl)N1CCN(c2ccccn2)CC1,1 µg/mL

row,SMILES,solubility kinetic
1,COc1nccc(NCc2ccccc2)c1C#N,20.1 µg/mL
2,COc1ccccc1CNC(=O)C(CCSC)NC(=O)c1cccc(S(=O)(=O)N2CCOCC2)c1 (stereo not given),3.4 µg/mL
3,CCN(CC)C(=O)C1=C(C)NC(=S)NC1c1ccc(C)s1 (stereo not given),44.1 µg/mL
4,O=C(Cc1ccccc1F)Nc1ccccc1N1CCCC1,27.8 µg/mL
5,CC(C)c1ccc(C(=O)NCCCNC(=O)c2cnccn2)cc1,> 49 µg/mL
6,O=C(c1ccc(Cl)c(Cl)c1)N1CCN(c2ccccn2)CC1,40.4 µg/mL
7,CC(=O)NC1C(Oc2ccccc2C)OC(CO)C(O)C1O (stereo not given),> 46.7 µg/mL
8,Cc1ccc(C(=O)CSc2nc(O)cc(=O)[nH]2)cc1C,> 43.6 µg/mL
9,CCOc1ccc(N2C(=O)CC(Cc3cc(C)cc(C)c3)C2=O)cc1 (stereo not given),4 µg/mL
10,Cc1cc(NC(=O)COC(=O)c2ccco2)no1,> 37.5 µg/mL
11,COCc1cc(C)[nH]c(=O)c1C(=O)NC12CC3CC(CC(C3)C1)C2,9.6 µg/mL
12,C[C@H](NS(=O)(=O)c1ccc(F)cc1)C(=O)OCC(=O)c1c(N)n(C)c(=O)n(C)c1=O,> 66.4 µg/mL
13,Cc1ccc(C(=O)Nc2ncccc2C)o1,> 32.4 µg/mL
14,FC(F)(F)c1ccccc1NC(=S)Nc1ccccc1,21.6 µg/mL
15,CC1CCc2c(sc(NC(=O)c3cccn3C)c2C(N)=O)C1 (stereo not given),2.9 µg/mL
16,N#C/C(=C\c1ccc(O)cc1)C(=O)NCc1ccccc1,2.4 µg/mL
17,O=C(Nc1ccc2oc(-c3ccncc3)nc2c1)c1ccco1,12.7 µg/mL
18,Cc1ccc(-n2ccnc2SCC(=O)O)cc1C,> 39.3 µg/mL
19,Fc1ccc(OCCCn2ccnc2)cc1,23.3 µg/mL
20,CC12CC3CC(C)(C1)CC(N)(C3)C2.Cl,29.4 µg/mL
21,O=C(Cc1ccccc1)N1CCC2(CC1)NCCc1[nH]cnc12,43.1 µg/mL
22,CCc1cccc(NC(=O)CC2Oc3ccccc3NC2=O)c1 (stereo not given),2.4 µg/mL
23,COc1cc(NC(=O)C(C)C)ccc1NC(=O)c1cc2ccccc2o1,0.7 µg/mL
24,CCOc1ccccc1NC(=O)C(c1ccccc1)N1CCN(CC(=O)N2CCCC2)CC1 (stereo not given),> 67.6 µg/mL

row,SMILES,solubility kinetic
1,Cc1ccc(C)c(OCCC(=O)OCC(=O)NC(=O)NC2CCCCC2)c1,3.9 µg/mL
2,Cc1c(NC2=CC(=O)CC(C)(C)C2)c(=O)n(-c2ccccc2)n1C,> 48.8 µg/mL
3,NC(=O)C1CCCN(C(=O)CCC(=O)c2cccs2)C1 (stereo not given),> 44.2 µg/mL
4,CCOc1cccnc1Sc1ccccc1,27.7 µg/mL
5,CCc1nccn1Cc1cc(C=O)ccc1OC.Cl,> 42.1 µg/mL
6,CCC(C(=O)OCC(=O)NC(=O)NC(C)(C)C)c1ccccc1 (stereo not given),2 µg/mL
7,O=S(=O)(c1cnc(Cl)c(Cl)c1)N1CCN(c2ncccn2)CC1,0.4 µg/mL
8,N#Cc1ccc(NC(=O)CN2C(=O)NC3(CCCC3)C2=O)cc1,> 46.8 µg/mL
9,C=CCN1C(=O)C(=O)N(Cc2nc3ccccc3s2)C1=O,> 45.2 µg/mL
10,C=CCn1cc(Cl)cc(C(=O)Nc2ccccc2)c1=O,6.9 µg/mL
11,Cc1cc(/C=C(\C#N)C(=O)OCC#N)c(C)n1CC(C)C,13.6 µg/mL
12,O=C(O)c1csc(-c2ccc(Cl)cc2)n1,> 36 µg/mL
13,O=C(c1ccccc1)c1ccccc1NC(=O)C1CCCN1Cc1ccccc1 (stereo not given),2.6 µg/mL
14,CCOc1cccc(C(=O)Nc2ccc3oc(-c4cccnc4)nc3c2)c1,< 0.3 µg/mL
15,CCOC(=O)c1ccc(S(=O)(=O)N2CCN(C(=O)c3ccccn3)CC2)cc1,> 60.5 µg/mL
16,O=S(=O)(NCC1CC1)c1ccc(F)c(Cl)c1,> 39.6 µg/mL
17,CC(=O)C(C)n1cnc2scc(-c3ccc(C)cc3)c2c1=O (stereo not given),44.6 µg/mL
18,CCOc1ccc(N2C(=O)CC(Cc3ccccc3OC)C2=O)cc1 (stereo not given),4.9 µg/mL
19,O=C(O)C(Cc1ccc(Cl)cc1)Sc1nc2ccccc2[nH]1 (stereo not given),42.3 µg/mL
20,COc1cc(C(=O)Nc2ccc(C(=O)c3cccs3)cc2)cc(OC)c1OC,8.2 µg/mL
21,Cc1cc(Br)cc(C=Nc2ccc(N3CCOCC3)cc2)c1O,6.1 µg/mL
22,CN(Cc1ccccc1)C(=O)COC(=O)c1cc2ccccc2oc1=O,> 52.7 µg/mL
23,COc1ccc(NC(=O)C2CCCC2)cc1,30.3 µg/mL
24,CCOC(=O)C1(C(F)(F)F)N=C(c2ccccc2F)OC(N(C)C)=N1 (stereo not given),42.2 µg/mL

# Source: PubChem BioAssay AID1996
